{
  "source": "patent US9744137B2",
  "about": "“Topiramate compositions and methods of enhancing its bioavailability” (Supernus Pharmaceuticals, Inc., priority 2006, dated 2017)",
  "key": {"[1]": {"assay": "Degradation of topiramate in 0.1 N HCl (simulated gastric fluid) at 37° C., HPLC-ELSD", "format": "physicochemical", "conditions": "drug substance, 24 hours of incubation in 0.1 N HCl at 37° C.", "protocol": "Degradation of topiramate was detected during a dissolution profile of Topamax® tablets in simulated gastric fluid (i.e., 0.1 N HCl). […] Topiramate analysis was carried out using HPLC equipped with Evaporative Laser Light Scattering Detector at 92° C. Separation was achieved using a C-8 reversed-phase column under isocratic conditions of 50% acetonitrile in water. The samples were kept at 4° C. throughout the analysis. Prior to sample injection, the system was equilibrated for 1 hr and subjected to a system suitability test. Linearity was evaluated by linearity curve with power fit. The samples were injected in duplicate and degradation was calculated using the sample area linearity slope and power."}, "[2]": {"conditions": "cited from earlier work"}, "patients with epilepsy": {"test_system": "patients with epilepsy", "conditions": "cited from earlier work; for time leading up to the first seizure (median seizure-free duration): monotherapy"}, "[3]": {"conditions": "cited from earlier work", "remark": "listed apart in the source"}},
  "note": "Where two headings read alike, the source gives them in different places.",
  "data": [
    {"compound": "CC1(C)OC2[C@@H](CO[C@@]3(COS(N)(=O)=O)OC(C)(C)O[C@@H]23)O1", "note": "(stereo partly drawn) [topiramate, 2,3:4,5-Di-O-isopropylidene-beta-D-fructopyranose sulfamate]", "values": [
      {"measurement": "topiramate degraded", "setting": "[1]", "value": "approximately 70%"},
      {"measurement": "effect of food on pharmacokinetics", "setting": "[2]; in vivo", "value": "not significantly affected by food"},
      {"measurement": "mean elimination half life", "setting": "[2]; in vivo", "value": "about 21 hours"},
      {"measurement": "time to peak plasma drug concentrations", "setting": "[2]; oral administration of an immediate release dosage form", "value": "approximately 2 hours"},
      {"measurement": "plasma topiramate concentration", "setting": "patients with epilepsy; 9 patients who became seizure-free", "value": "5.3 ± 2.6", "unit": "µg/mL"},
      {"measurement": "time leading up to the first seizure (median seizure-free duration)", "setting": "patients with epilepsy; 215 patients with partial epilepsy, serum concentrations <1.8 mg/L", "value": 84, "unit": "days"},
      {"measurement": "time leading up to the first seizure (median seizure-free duration)", "setting": "patients with epilepsy; serum concentrations above 9.9 mg/L", "value": 451, "unit": "days"},
      {"measurement": "time leading up to the first seizure (median seizure-free duration)", "setting": "patients with epilepsy; serum concentrations between 1.8 and 9.9 mg/L", "value": 194, "unit": "days"},
      {"measurement": "mean topiramate plasma concentration", "setting": "patients with epilepsy; positive responders", "value": "around 7 μg/mL"},
      {"measurement": "mean topiramate plasma concentration", "setting": "patients with epilepsy; seizure-free patients", "value": "~9", "unit": "µg/mL"},
      {"measurement": "plasma levels at steady state", "setting": "[3]; migraine prophylaxis", "value": "1200 to 4400", "unit": "ng/mL"},
      {"measurement": "mean serum level", "setting": "[3]; pediatric migraine study, daily dose 84.0+/−38.6 mg/day", "value": "2800 ± 1600", "unit": "ng/mL"}
    ]}
  ]
}
